Like-named read-outs stand apart in the source and are kept apart here.
Key:
[1] = system: GABAA Cl- channel (non- selective); experiment: Cerep binding; conditions: 10 μM; [35S]TBPS; rat cerebral cortex
GABAA-α5 receptors [2] = experiment: Receptor occupancy estimated from free plasma concentrations, object retrieval; format: in vivo, Macaca fascicularis
Excerpt: Free plasma concentrations were used to estimate receptor occupancy.

Serotonin 5-HT2A = system: T1, Serotonin 5-HT2A; experiment: Cerep binding; set-up: species or system human; conditions: 10 μM; [3H]ketanserin; hum. recomb. (HEK-293)
T1 construct: purchased Eurofins Cerep

non-impaired rodents = experiment: Cognitive performance in non-impaired rodents; format: in vivo; conditions: data not shown
Dopamine D3 = system: T2, Dopamine D3; experiment: Cerep binding; set-up: species or system human; conditions: 10 μM; [3H]spiperone; hum. recomb. (CHO)
T2 construct: host or cells: CHO

Galanin 2 = system: T3, Galanin 2; experiment: Cerep binding; set-up: species or system human; conditions: 10 μM; [125I]galanin; hum. recomb. (CHO)
T3 construct: purchased Eurofins Cerep

[3] = system: T4, Vasoactive intestinal peptide VPAC1 (VIP1); experiment: Cerep binding; set-up: species or system human; conditions: 10 μM; [125I]VIP; hum. recomb. (CHO)
T4 construct: host or cells: CHO

GABAA-α5 receptors [4] = target: T5, GABAA-α5 receptors (Homo sapiens, UniProt P18507+P31644); experiment: Receptor occupancy during EEG assessments; format: in vivo; conditions: 240 mg twice daily
T5 construct: occupancy at the GABAA-α5 subunit-containing receptors in the human brain after oral dosing; from tissue; host or cells: brain of healthy human volunteers, in vivo PET
T5 sequence (P31644 32-462): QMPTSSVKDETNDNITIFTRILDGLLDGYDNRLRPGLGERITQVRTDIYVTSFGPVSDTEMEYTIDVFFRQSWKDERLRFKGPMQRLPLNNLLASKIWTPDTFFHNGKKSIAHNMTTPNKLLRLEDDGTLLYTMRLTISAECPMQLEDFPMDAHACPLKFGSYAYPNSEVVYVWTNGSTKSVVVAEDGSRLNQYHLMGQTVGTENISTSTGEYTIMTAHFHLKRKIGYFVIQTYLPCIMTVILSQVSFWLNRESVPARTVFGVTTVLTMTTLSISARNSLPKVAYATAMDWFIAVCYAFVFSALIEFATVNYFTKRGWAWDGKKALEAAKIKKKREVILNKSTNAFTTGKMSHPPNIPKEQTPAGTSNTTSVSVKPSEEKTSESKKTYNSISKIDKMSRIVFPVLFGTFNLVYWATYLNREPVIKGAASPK
T5 sequence (P18507 40-467 limits assumed): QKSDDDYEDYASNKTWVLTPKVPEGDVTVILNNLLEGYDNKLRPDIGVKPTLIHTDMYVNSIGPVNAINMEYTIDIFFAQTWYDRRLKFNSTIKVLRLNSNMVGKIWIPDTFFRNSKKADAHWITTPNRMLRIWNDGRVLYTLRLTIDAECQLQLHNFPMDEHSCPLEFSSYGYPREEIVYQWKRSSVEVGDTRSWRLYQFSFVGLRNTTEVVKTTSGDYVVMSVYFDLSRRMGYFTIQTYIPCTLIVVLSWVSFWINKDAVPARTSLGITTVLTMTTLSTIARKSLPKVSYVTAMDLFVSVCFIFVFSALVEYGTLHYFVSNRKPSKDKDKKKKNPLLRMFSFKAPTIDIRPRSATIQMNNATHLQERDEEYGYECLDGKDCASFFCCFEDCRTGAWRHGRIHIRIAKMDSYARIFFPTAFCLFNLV
T5 sequence (P28472 26-473 partner): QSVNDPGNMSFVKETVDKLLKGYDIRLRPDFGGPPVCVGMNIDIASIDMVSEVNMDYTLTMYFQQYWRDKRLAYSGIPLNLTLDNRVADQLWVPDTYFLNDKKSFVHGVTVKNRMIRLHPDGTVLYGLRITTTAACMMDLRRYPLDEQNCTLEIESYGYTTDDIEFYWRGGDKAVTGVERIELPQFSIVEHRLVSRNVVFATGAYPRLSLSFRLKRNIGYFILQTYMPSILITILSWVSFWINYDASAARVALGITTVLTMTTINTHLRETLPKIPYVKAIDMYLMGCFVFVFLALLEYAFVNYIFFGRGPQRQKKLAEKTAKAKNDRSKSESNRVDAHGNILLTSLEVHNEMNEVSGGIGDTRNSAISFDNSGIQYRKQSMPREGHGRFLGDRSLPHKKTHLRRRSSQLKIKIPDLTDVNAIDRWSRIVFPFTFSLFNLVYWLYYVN

Galanin 1 = system: T6, Galanin 1; experiment: Cerep binding; set-up: species or system human; conditions: 10 μM; [125I]galanin; hum. recomb. (HEK-293)
T6 construct: purchased Eurofins Cerep

[5] = system: Somatostatin (non-selective); experiment: Cerep binding; conditions: 10 μM; [125I]Tyr11-somatostatin-14; mouse, AtT-20 cells
[6] = Pharmacokinetics, single oral dosing; format: in vivo; conditions: plasma; for Tmax: read-out: Tmax (range)
Method: Concentrations were chosen to achieve the desired doses by administering 5 mL/kg to rats and 2.5 mL/kg to NHPs via oral gavage.
The calibration range was from 1.0 to 5000 ng/mL. After protein precipitation with ethanol, the sample solution was injected onto a Gemini C18 trapping column (2 × 10 mm; Phenomenex, Torrance, CA, USA) and polar endogenous compounds and salts were rinsed off. Analytical separation was performed on an Atlantis T3 column (2.1 × 50 mm) (Waters, Milford, MA, USA), using methanol/water containing 0.1% formic acid as mobile phase. A drug analogue was used as an internal standard.

[7] = Beagle, dog, 4 mg/kg oral, capsule, n = 3 male, ± standard deviation
[8] = C57/Bl6, mouse, 4 mg/kg oral, microsuspension, n = 2 male
[9] = Wistar, rat, 9 mg/kg oral, microsuspension, n = 2 male

Cc1onc(-c2ccc(F)cc2)c1COc1ccc(C(=O)N2CCS(=O)(=O)CC2)cn1 [basmisanil]
% Inhibition [1]: -6% | estimated receptor occupancy (GABAA-α5 receptors [2]; 3 mg/kg p.o.): about 30% | estimated receptor occupancy (GABAA-α5 receptors [2]; 10 mg/kg p.o.): around 50% | % Inhibition (Serotonin 5-HT2A): -9% | enhancement of cognitive performance (non-impaired rodents): have not shown enhancement of cognitive performance | % Inhibition (Dopamine D3): 3% | % Inhibition (Galanin 2): -1% | % Inhibition [3]: 0% | receptor occupancy at 240 mg (GABAA-α5 receptors [4]; 14 days, read-out: occupancy of GABAA-α5 receptors): > 90% | receptor occupancy at 240 mg (GABAA-α5 receptors [4]; day 14, 1 h post morning dose, read-out: receptor occupancy): 92 ± 3% | receptor occupancy at 240 mg (GABAA-α5 receptors [4]; day 14, 4 h post morning dose, read-out: receptor occupancy): 94 ± 1.5% | % Inhibition (Galanin 1): 0% | % Inhibition [5]: 18% | bioavailability ([6]; Beagle, dog, 4 mg/kg oral, capsule, n = 3 male): 61% | Tmax ([6]; Beagle, dog, 4 mg/kg oral, capsule, n = 3 male, median): 90 min | AUC(0-t) [6, 7]: 10600 ng·h/mL | Cmax [6, 7]: 788 ± 275 ng/mL | AUC(0-t) [6, 8]: 455 ng·h/mL | Cmax [6, 8]: 520 ng/mL | bioavailability [6, 8]: 25% | Tmax [6, 8]: 18 min | AUC(0-t) [6, 9]: 1100 ng·h/mL | Cmax [6, 9]: 400 ng/mL | bioavailability [6, 9]: 41% | Tmax [6, 9]: 30 min

Reference: paper PMC8032764 (Scientific Reports, 2021)
